Reference: patent publication US4522815A, “Anthracycline glycosides” (priority 1982, dated 1985)
≈ marks a conversion by molar mass, not a printed value. Like-named read-outs stand apart in the source and are kept apart here.

Columns and labels:
[1] = test system: HeLa cells; test: Colony inhibition test against HeLa cells in vitro (cloning efficiency), treatment for 24 hrs; assay type: cell-based; settings: for activity at 0.0062 µg/mL: 6.2 ng/ml; for activity at 0.025 µg/mL: 25 ng/ml; for IC50: HeLa colony inhibition; for activity at 0.0125 µg/mL: 12.5 ng/ml
[2] = test system: ascitic P388 leukemia; test: Antitumor activity against ascitic P388 leukemia in CDF-1 mice, treatment i.p. on day 1; assay type: in vivo
Procedure: The primary screening […] was carried out in CDF-1 mice bearing ascitic P388 leukemia (10^6 cells/mouse). Both IIa and IIc were suspended in 10%. Tween 80 and injected intraperitoneally.
Results of the primary screening "in vivo" carried out in CDF-1 mice bearing P388 ascitic leukemia and treated i.p. the day after tumor transplantation, are reported in Table 5.
Antitumor activity against ascitic P388 leukekemia.
(§1) Treatment i.p. on day 1.
^a median survival time; % over untreated controls
^b long term survivors (≥ 60 days)
^c evaluated on the basis of autoptic findings on dead mice
(§2) ^d data of two experiments (range)
^e date of three experiments (range)
Antitumor activity of Ib and Id against ascitic P388
as §1

[3] = test system: Gross leukemia; test: Antitumor activity against i.v. transplanted Gross leukemia in C3H/Me mice, treatment i.v. on day 1; assay type: in vivo; settings: for T/C, median survival time; % over untreated controls / Toxic deaths: Table 6
Description: (§3) Results of studies performed in C3H/Me mice carrying i.v. transplanted Gross leukemia and treated i.v. the day after tumor transplantation, are reported in Table 6. […] The compounds Ib and Id were further investigated for oral activity on Gross leukemic transplanted i.v., in comparison with DNR, DX given i.v. and 4-dm DNR given oral route.
Antitumor activity against i.v. Gross leukemia.
Treatment i.v. on day 1.

[4] = test system: Gross leukemia; test: Oral activity against i.v. transplanted Gross leukemia (i.v. comparators); assay type: in vivo, C3H/Me mice; settings: for T/C %, median survival time / Toxic deaths: Table 7
Description: as §3
Oral activity of Ib and Id against Gross leukemia
^a days after transplantation
as §2

[5] = test system: P388 leukemia cells sensitive to DX; test: Cytotoxicity on doxorubicin-sensitive P388 leukemia cells in vitro, 48 hrs exposure; assay type: cell-based, mice; settings: Mus musculus, P388; dose giving 50% reduction of cell number vs untreated controls; 48 hrs; read-out: ID50 P388
Description: P388 and P388/DX leukemia cells were harvested from mice ascitic fluid and adapted to grow in suspension "in vitro".

[6] = test system: P388 leukemia cells resistant to DX (P388/DX); test: Cytotoxicity on doxorubicin-resistant P388/DX leukemia cells in vitro, 48 hrs exposure; assay type: cell-based, mice
Procedure: Compounds Ib and Id were studied "in vitro" on HeLa and P388 leukemia cells sensitive (P388) and resistant (P388/DX) to DX and […].
Compound Ib was studied on P388/DX "in vitro".
P388 and P388/DX leukemia cells were harvested from mice ascitic fluid and adapted to grow in suspension "in vitro". Cytotoxicity tests were carried out exposing the cells to various drug concentrations for 48 hrs; at the end of the exposure period, cells were counted with a coulter cell counter, and the ID50 (dose which gives 50% reduction of the cell number in comparison with untreated controls) was calculated.
Effect on sensitive and doxorubicin-resistant P388
^a Dose giving 50% reduction of cell number in comparison with
^c P388 leukemia cells resistant to DX
^d Ratio between ID50 on P388/DX and ID50 on P388

[7] = Homo sapiens, HeLa, Table 3, 24 hrs, read-out: No of colonies, % of untreated controls
[8] = Homo sapiens, HeLa, 24 h, read-out: No of colonies, % of untreated controls, Table 1, 24 hrs
[9] = Homo sapiens, HeLa, 24 h, read-out: No of colonies, % of untreated controls, Table 3, 24 hrs
[10] = Table 2, 4.4 mg/kg i.p. day 1, two experiments
[11] = Table 2, 6.6 mg/kg i.p. day 1, two (DNR) or three (DX) experiments
[12] = Table 5, 2.9 mg/kg i.p. day 1, two experiments
[13] = Table 5, 4.4 mg/kg i.p. day 1, DNR: two experiments

In the case of `C[C@@H]1O[C@@H](O[C@H]2C[C@](O)(C(=O)CO)Cc3c(O)c4c(c(O)c32)C(=O)c2ccccc2C4=O)C[C@H](O)[C@H]1O` [Compound Id, 4-demethoxy-7-0-(2,6-dideoxy-α-L-arabino-hexopyranosyl)-adriamycinone], the “cytotoxicity in comparison with DX” value ([1]; HeLa cells cloning efficiency) is reported as “as cytotoxic as DX”, the activity at 0.0015 µg/mL ([1]; Homo sapiens, HeLa, Table 3, 1.5 ng/ml, 24 hrs, read-out: No of colonies, % of untreated controls) is reported as 106% and the activity at 0.0062 µg/mL [1, 7] is reported as 59%. The activity at 0.025 µg/mL [1, 7] was 0%, the activity at 0.1 µg/mL ([1]; Homo sapiens, HeLa, Table 3, 100 ng/ml, 24 hrs, read-out: No of colonies, % of untreated controls) was 0% and the IC50 ([1]; Homo sapiens, Table 3, 24 hrs, read-out: ID50 (the source's name)) was ~0.007 µg/mL (≈ 0.0136 µM). For the same compound, the “LTS, long term survivors (≥ 60 days)” value ([2]; Table 5, 1.12 mg/kg i.p. day 1) was 0/10, the “T/C, median survival time; % over untreated controls” value (“T/C, median survival time; %” below) ([2]; Table 5, 1.12 mg/kg i.p. day 1) was 170% and the “Toxic deaths (autoptic findings on dead mice)” value ([2]; Table 5, 1.12 mg/kg i.p. day 1) was 0/10. For the same compound, the “LTS, long term survivors (≥ 60 days)” value ([2]; Table 5, 1.68 mg/kg i.p. day 1) was 0/10, the “T/C, median survival time; %” value ([2]; Table 5, 1.68 mg/kg i.p. day 1) was 185% and the “Toxic deaths (autoptic findings on dead mice)” value ([2]; Table 5, 1.68 mg/kg i.p. day 1) was 0/10. For the same compound, the “LTS, long term survivors (≥ 60 days)” value ([2]; Table 5, 2.53 mg/kg i.p. day 1) was 1/10, the “T/C, median survival time; %” value ([2]; Table 5, 2.53 mg/kg i.p. day 1) was 230% and the “Toxic deaths (autoptic findings on dead mice)” value ([2]; Table 5, 2.53 mg/kg i.p. day 1) was 2/10. The “times more potent than DX” value ([2]; ascitic P388, i.p. day 1) was “about 5 times”, the “antileukemia activity against P388 leukemia” value ([2]; vs DX) was “good but lower than that of DX” and the “antitumor activity, comparison of the Mx TD” value ([3]; Gross leukemia, i.v. day 1) was “good antitumor activity, which is of the same order of magnitude as that of DX”. For the same compound, the “toxicity and potency vs parent compounds” value ([3]; Gross leukemia, i.v. day 1) was “more toxic and more potent than the parent compounds”, the “T/C, median survival time; %” value ([3]; 1.2 mg/kg i.v. day 1) was 171% and the Toxic deaths ([3]; 1.2 mg/kg i.v. day 1) was 1/10. For the same compound, the “T/C, median survival time; %” value ([3]; 2.16 mg/kg i.v. day 1) was 200%, the Toxic deaths ([3]; 2.16 mg/kg i.v. day 1) was 1/10 and the “T/C, median survival time; %” value ([3]; 3.8 mg/kg i.v. day 1) was 114%. For the same compound, the Toxic deaths ([3]; 3.8 mg/kg i.v. day 1) was 5/9, the “T/C %, median survival time” value ([4]; oral +1, 1.2 mg/kg) was 171% and the Toxic deaths ([4]; oral +1, 1.2 mg/kg) was 0/9. The “T/C %, median survival time” value ([4]; oral +1, 2.1 mg/kg) was 185%, the Toxic deaths ([4]; oral +1, 2.1 mg/kg) was 0/8 and the “T/C %, median survival time” value ([4]; oral +1, 3.8 mg/kg) was 214%. For the same compound, the Toxic deaths ([4]; oral +1, 3.8 mg/kg) was 3/8, the “T/C %, median survival time” value ([4]; oral days 1,2,3, 0.48 mg/kg) was 183% and the Toxic deaths ([4]; oral days 1,2,3, 0.48 mg/kg) was 0/10. For the same compound, the “T/C %, median survival time” value ([4]; oral days 1,2,3, 0.62 mg/kg) was 208%, the Toxic deaths ([4]; oral days 1,2,3, 0.62 mg/kg) was 0/10 and the Toxic deaths ([4]; oral days 1,2,3, 0.8 mg/kg, two experiments) was 2/20. For the same compound, the “T/C %, median survival time” value ([4]; oral days 1,2,3, 0.8 mg/kg, two experiments (range)) was 233-258%, the “antitumor activity given orally at day 1” value ([4]; oral day 1, Gross leukemia, Id at the Mx TD vs DX i.v.) was “less active than DX i.v” and the “antitumor activity given orally days 1,2,3” value ([4]; oral days 1,2,3, vs DX i.v.) was “higher than that of DX given i.v”.
`COc1cccc2c1C(=O)c1c(O)c3c(c(O)c1C2=O)C[C@@](O)(C(C)=O)C[C@@H]3O[C@H]1C[C@H](N)[C@H](O)[C@H](C)O1` [DNR, daunorubicin, reference compound] showed an IC50 ([1]; Homo sapiens, HeLa, 24 h, read-out: ID50, Table 1, 24 hrs) of ~0.016 µg/mL (≈ 0.0303 µM), an IC50 ([1]; Homo sapiens, HeLa, 24 h, read-out: ID50, Table 3, 24 hrs) of ~0.012 µg/mL (≈ 0.0227 µM) and an activity at 0.0062 µg/mL [1, 8] of 106%. The activity at 0.0125 µg/mL [1, 8] was 74%, the activity at 0.025 µg/mL [1, 8] was 12% and the activity at 0.0062 µg/mL [1, 9] was 83%. It also gave an activity at 0.0125 µg/mL [1, 9] of 51%, an activity at 0.025 µg/mL [1, 9] of 9% and an IC50 [5] of 0.0017 µg/mL (≈ 0.00322 µM). For the same compound, the IC50 ([6]; Mus musculus, P388/DX, dose giving 50% reduction of cell number vs untreated controls, 48 hrs, read-out: ID50 P388/DX) was 0.8 µg/mL (≈ 1.52 µM), the “fold less active on the resistant than on the sensitive line” value ([6]; P388/DX vs P388, 2880 min) was “about 500 fold” and the “R: Ratio between ID50 on P388/DX and ID50 on P388” value ([6]; Table 4, 2880 min) was 470. The “LTS, long term survivors (≥ 60 days)” value ([2]; Table 2, 2.9 mg/kg i.p. day 1) was 0/10, the “T/C, median survival time; %” value ([2]; Table 2, 2.9 mg/kg i.p. day 1) was 160% and the “Toxic deaths (autoptic findings on dead mice)” value ([2]; Table 2, 2.9 mg/kg i.p. day 1) was 0/10. The “T/C, median survival time; %” value ([2]; Table 2, 4.4 mg/kg i.p. day 1, data of two experiments (range)) was 165-170%, the “LTS, long term survivors (≥ 60 days)” value [2, 10] was 0/10 and the “Toxic deaths (autoptic findings on dead mice)” value [2, 10] was 0/20. For the same compound, the “T/C, median survival time; %” value ([2]; Table 2, 6.6 mg/kg i.p. day 1, range of two (DNR) or three (DX) experiments) was 150-160%, the “LTS, long term survivors (≥ 60 days)” value [2, 11] was 0/10 and the “Toxic deaths (autoptic findings on dead mice)” value [2, 11] was 7/20. For the same compound, the “LTS, long term survivors (≥ 60 days)” value [2, 12] was 0/18, the “Toxic deaths (autoptic findings on dead mice)” value [2, 12] was 0/8 and the “T/C, median survival time; %” value ([2]; Table 5, 2.9 mg/kg i.p. day 1, two experiments (range)) was 159-194%. The “LTS, long term survivors (≥ 60 days)” value [2, 13] was 0/18, the “Toxic deaths (autoptic findings on dead mice)” value [2, 13] was 7/18 and the “T/C, median survival time; %” value ([2]; Table 5, 4.4 mg/kg i.p. day 1, DNR: two experiments (range)) was 140-184%. The “T/C, median survival time; %” value ([3]; 15 mg/kg i.v. day 1) was 171%, the Toxic deaths ([3]; 15 mg/kg i.v. day 1) was 0/8 and the “T/C, median survival time; %” value ([3]; 22.5 mg/kg i.v. day 1) was 171%. The Toxic deaths ([3]; 22.5 mg/kg i.v. day 1) was 0/8, the “T/C %, median survival time” value ([4]; i.v. +1, 15 mg/kg) was 200% and the Toxic deaths ([4]; i.v. +1, 15 mg/kg) was 0/10. For the same compound, the “T/C %, median survival time” value ([4]; i.v. +1, 22.5 mg/kg) was 125% and the Toxic deaths ([4]; i.v. +1, 22.5 mg/kg) was 6/10.
